Measurements from US20140364431A1, “Quinoline and cinnoline derivatives and their applications” (Shenyang Pharmaceutical University, priority 2011, published 2014).
Values after ≈ are worked out from the molar mass of the structure shown. Structures can show the parent of a compound that is named as a salt. Where two headings read alike, the source gives them in different places.

Tests used:
[1] = test system: MKN-45 (human gastric carcinoma cell); experiment: In vitro anti-tumor cellular activity (MTT), MKN-45; assay type: cell-based; details: for IC50: Homo sapiens, read-out: MKN-45 IC50
[2] = test system: H460 (human lung cancer cell); experiment: In vitro anti-tumor cellular activity (MTT), H460; assay type: cell-based; details: for IC50: Homo sapiens, read-out: H460 IC50
[3] = test system: SMMC-7721 (hepatoma cell); experiment: In vitro anti-tumor cellular activity (MTT), SMMC-7721; assay type: cell-based, human; details: for IC50: Homo sapiens, read-out: SMMC-7721 IC50
[4] = test system: HT-29 (colon cancer cell); experiment: In vitro anti-tumor cellular activity (MTT), HT-29; assay type: cell-based, human; details: for IC50: Homo sapiens, read-out: HT-29 IC50
[5] = test system: U87MG (Human malignant glioblastoma cells); experiment: In vitro anti-tumor cellular activity (MTT), U87MG; assay type: cell-based; details: for IC50: Homo sapiens, U-87 MG, read-out: U87MG IC50

Row | Molecule | IC50 ([1]; MKN-45, 72 h) [µg/mL] | IC50 ([2]; NCI-H460, 72 h) [µg/mL] | IC50 ([3]; SMMC-7721, 72 h) [µg/mL] | IC50 ([4]; HT-29, 72 h) [µg/mL] | IC50 ([5]; 72 h) [µg/mL] | further results
1 | N.N.[Cl][Pt][Cl] [Cisplatin, reference compound] | – | – | – | – | – | MKN-45 IC50 ([1]; MTT, 72 hours, MKN-45): 0.68 µg/mL; H460 IC50 ([2]; MTT, 72 hours, H460): 0.23 µg/mL; SMMC-7721 IC50 ([3]; MTT, 72 hours, SMMC-7721): 0.9 µg/mL; HT-29 IC50 ([4]; MTT, 72 hours, HT-29): 1 µg/mL; U87MG IC50 ([5]; MTT, 72 hours, U87MG): 0.19 µg/mL
2 | COc1cc2c(Oc3ccc(NC(=O)c4nn(-c5ccc(Br)cc5)c5ccccc5c4=O)cc3F)ccnc2cc1OCCCN1CCCCC1.Cl.Cl [Example 3, N-(3-fluoro-4-((6-methoxy-7-(3-(piperidin-1-yl)propoxy)quinolin-4-yl)oxy)phenyl)-1-(4-bromophenyl)-4-oxo-1,4-dihydrocinnoline-3-carboxamide dihydrochloride] | 0.34 | 0.3 | 0.63 | 0.86 | 1.2 | –
3 | COc1cc2c(Oc3ccc(NC(=O)c4nn(-c5ccccc5C(F)(F)F)c5ccccc5c4=O)cc3F)ccnc2cc1OCCCN1CCOCC1 [Example 4, N-(3-fluoro-4-((6-methoxy-7-(3-(morpholin-4-ylpropoxy)quinolin-4-yl)oxy)phenyl)-1-(2-(trifluoromethyl)phenyl)-4-oxo-1,4-dihydrocinnoline-3-carboxamidedihydrochloride] | 2 | 1 | 0.9 | 1.2 | 0.8 | –
4 | COc1cc2c(Oc3ccc(NC(=O)c4nn(-c5cccc(C(F)(F)F)c5)c5ccccc5c4=O)cc3F)ccnc2cc1OCCCN1CCCCC1 [Example 6, N-(3-fluoro-4-((6-methoxy-7-(3-(piperidin-1-yl)propoxy)quinolin-4-yl)oxy)phenyl)-1-(3-(trifluoromethyl)phenyl)-4-oxo-1,4-dihydrocinnoline-3-carboxamide] | 0.1 (≈ 0.135 µM) | 1.7 (≈ 2.29 µM) | 1.3 (≈ 1.75 µM) | 0.63 (≈ 0.849 µM) | 1.4 (≈ 1.89 µM) | –
5 | COc1cc2c(Oc3ccc(NC(=O)c4nn(-c5cccc(F)c5)c5ccccc5c4=O)cc3F)ccnc2cc1OCCCN1CCCCC1 [Example 9, N-(3-fluoro-4-((6-methoxy-7-(3-(piperidin-1-yl)propoxy)quinolin-4-yl)oxy)phenyl)-1-(3-fluorophenyl)-4-oxo-1,4-dihydrocinnoline-3-carboxamide] | 0.0075 (≈ 0.0108 µM) | 0.007 (≈ 0.0101 µM) | 0.65 (≈ 0.94 µM) | 0.17 (≈ 0.246 µM) | 1.2 (≈ 1.73 µM) | –
6 | COc1cc2c(Oc3ccc(NC(=O)c4nn(-c5ccc(Cl)cc5)c5ccccc5c4=O)cc3F)ccnc2cc1OCCCN1CCCCC1 [Example 10, N-(3-fluoro-4-((6-methoxy-7-(3-(piperidin-1-yl)propoxy)quinolin-4-yl)oxy)phenyl)-1-(4-chlorophenyl)-4-oxo-1,4-dihydrocinnoline-3-carboxamide] | 0.087 (≈ 0.123 µM) | 0.06 (≈ 0.0847 µM) | 1 (≈ 1.41 µM) | 0.42 (≈ 0.593 µM) | 0.86 (≈ 1.21 µM) | –
7 | COc1cc2c(Oc3ccc(NC(=O)c4nn(-c5ccc(F)cc5Br)c5ccccc5c4=O)cc3F)ccnc2cc1OCCCN1CCCC1 [Example 18, N-(3-fluoro-4-((6-methoxy-7-(3-(pyrrolidin-1-yl)propoxy)quinolin-4-yl)oxy)phenyl)-1-(2-bromo-4-fluorophenyl)-4-oxo-1,4-dihydrocinnoline-3-carboxamide] | 1.5 (≈ 1.98 µM) | 1.3 (≈ 1.72 µM) | 2.1 (≈ 2.78 µM) | 0.9 (≈ 1.19 µM) | 0.8 (≈ 1.06 µM) | –
8 | COc1cc2c(Oc3ccc(NC(=O)c4nn(-c5cc(C(F)(F)F)ccc5Cl)c5ccccc5c4=O)cc3F)ccnc2cc1OCCCN1CCCC1 [Example 22, N-(3-fluoro-4-((6-methoxy-7-(3-(pyrrolidin-1-yl)propoxy)quinolin-4-yl)oxy)phenyl)-1-(2-chloro-5-(trifluoromethyl)phenyl)-4-oxo-1,4-dihydrocinnoline-3-carboxamide] | 0.28 (≈ 0.367 µM) | 0.54 (≈ 0.709 µM) | 0.54 (≈ 0.709 µM) | 0.81 (≈ 1.06 µM) | 0.96 (≈ 1.26 µM) | –
9 | COc1cc2c(Oc3ccc(NC(=O)c4nn(-c5ccc(C)cc5C)c5ccccc5c4=O)cc3F)ccnc2cc1OCCCN1CCCC1 [Example 25, N-(3-fluoro-4-((6-methoxy-7-(3-(pyrrolidin-1-yl)propoxy)quinolin-4-yl)oxy)phenyl)-1-(2,4-dimethylphenyl)-4-oxo-1,4-dihydrocinnoline-3-carboxamide] | 1.5 (≈ 2.18 µM) | 0.89 (≈ 1.29 µM) | 0.76 (≈ 1.11 µM) | 1.1 (≈ 1.6 µM) | 2.9 (≈ 4.22 µM) | –
10 | COc1cc2c(Oc3ccc(NC(=O)c4nn(-c5ccc(Cl)cc5Cl)c5ccccc5c4=O)cc3F)ccnc2cc1OCCCN1CCCCC1 [Example 27, N-(3-fluoro-4-((6-methoxy-7-(3-(piperidin-1-yl)propoxy)quinolin-4-yl)oxy)phenyl)-1-(2,4-dichlorophenyl)-4-oxo-1,4-dihydrocinnoline-3-carboxamide] | 2.1 (≈ 2.83 µM) | 1.5 (≈ 2.02 µM) | 0.9 (≈ 1.21 µM) | 1.8 (≈ 2.42 µM) | 0.6 (≈ 0.808 µM) | –
11 | COc1cc2c(Oc3ccc(NC(=O)c4nn(-c5c(Cl)cccc5Cl)c5ccccc5c4=O)cc3F)ccnc2cc1OCCCN1CCCCC1 [Example 29, N-(3-fluoro-4-((6-methoxy-7-(3-(piperidin-1-yl)propoxy)quinolin-4-yl)oxy)phenyl)-1-(2,6-dichlorophenyl)-4-oxo-1,4-dihydrocinnoline-3-carboxamide] | 0.67 (≈ 0.902 µM) | 0.77 (≈ 1.04 µM) | 1.2 (≈ 1.62 µM) | 0.44 (≈ 0.592 µM) | 0.74 (≈ 0.996 µM) | –
12 | COc1cc2c(Oc3ccc(NC(=O)c4nn(-c5c(Cl)cccc5Cl)c5ccccc5c4=O)cc3F)ccnc2cc1OCCCN1CCC(C)CC1 [Example 30, N-(3-fluoro-4-((6-methoxy-7-(3-(4-methylpiperidin-1-yl)propoxy)quinolin-4-yl)oxy)phenyl)-1-(2,6-dichlorophenyl)-4-oxo-1,4-dihydrocinnoline-3-carboxamide] | 0.5 (≈ 0.661 µM) | 0.7 (≈ 0.925 µM) | 0.1 (≈ 0.132 µM) | 0.49 (≈ 0.648 µM) | 0.27 (≈ 0.357 µM) | –
13 | COc1cc2c(Oc3ccc(NC(=O)c4nn(-c5c(Cl)cccc5Cl)c5ccccc5c4=O)cc3F)ccnc2cc1OCCCN1CCCC1 [Example 31, N-(3-fluoro-4-((6-methoxy-7-(3-(pyrrolidin-1-yl)propoxy)quinolin-4-yl)oxy)phenyl)-1-(2,6-dichlorophenyl)-4-oxo-1,4-dihydrocinnoline-3-carboxamide] | 0.18 (≈ 0.247 µM) | 0.77 (≈ 1.06 µM) | 0.33 (≈ 0.453 µM) | 0.27 (≈ 0.371 µM) | 0.26 (≈ 0.357 µM) | –
14 | COc1cc2c(Oc3ccc(NC(=O)c4nn(-c5ccccc5Cl)c5ccccc5c4=O)cc3F)ccnc2cc1OCCCN1CCOCC1 [Example 33, N-(3-fluoro-4-((6-methoxy-7-(3-(morpholin-4-yl)propoxy)quinolin-4-yl)oxy)phenyl)-1-(2-chlorophenyl)-4-oxo-1,4-dihydrocinnoline-3-carboxamide] | – | 2.2 (≈ 3.1 µM) | 1.6 (≈ 2.25 µM) | 0.9 (≈ 1.27 µM) | 1.4 (≈ 1.97 µM) | –
15 | COc1cc2c(Oc3ccc(NC(=O)c4nn(-c5ccccc5Br)c5ccccc5c4=O)cc3F)ccnc2cc1OCCCN1CCOCC1 [Example 34, N-(3-fluoro-4-((6-methoxy-7-(3-(morpholin-4-yl)propoxy)quinolin-4-yl)oxy)phenyl)-1-(2-bromophenyl)-4-oxo-1,4-dihydrocinnoline-3-carboxamide] | 1.3 (≈ 1.72 µM) | 0.7 (≈ 0.928 µM) | 1.5 (≈ 1.99 µM) | 0.43 (≈ 0.57 µM) | 0.65 (≈ 0.861 µM) | –
16 | COc1cc2c(Oc3ccc(NC(=O)c4nn(-c5ccccc5OC(F)(F)F)c5ccccc5c4=O)cc3F)ccnc2cc1OCCCN1CCOCC1 [Example 37, N-(3-fluoro-4-((6-methoxy-7-(3-(morpholin-4-yl)propoxy)quinolin-4-yl)oxy)phenyl)-1-(2-(trifluoromethoxy)phenyl)-4-oxo-1,4-dihydrocinnoline-3-carboxamide] | 2.3 (≈ 3.03 µM) | 1.9 (≈ 2.5 µM) | 1.5 (≈ 1.97 µM) | 0.9 (≈ 1.18 µM) | 2.1 (≈ 2.76 µM) | –
17 | COc1cc2c(Oc3ccc(NC(=O)c4nn(-c5cccc(F)c5)c5ccccc5c4=O)cc3F)cnnc2cc1OCCCN1CCN(C)CC1 [Example 62, N-(3-fluoro-4-((6-methoxy-7-(3-(4-methylpiperazin-1-yl)propoxy)cinnolin-4-yl)oxy)phenyl)-1-(3-fluorophenyl)-4-oxo-1,4-dihydrocinnoline-3-carboxamide] | – | – | – | – | – | IC50 ([1]; MTT, 72 hours, MKN-45): 3.6 µg/mL (≈ 5.09 µM); IC50 ([2]; NCI-H460, MTT, 72 hours, H460): 0.8 µg/mL (≈ 1.13 µM); IC50 ([3]; MTT, 72 hours, SMMC-7721): 2.1 µg/mL (≈ 2.97 µM); IC50 ([4]; MTT, 72 hours, HT-29): 2.1 µg/mL (≈ 2.97 µM); IC50 ([5]; MTT, 72 hours, U87MG): 1.4 µg/mL (≈ 1.98 µM)
18 | COc1cc2c(Oc3ccc(NC(=O)c4nn(-c5cccc(F)c5)c5ccccc5c4=O)cc3F)cnnc2cc1OCCCN1CCCCC1 [Example 64, N-(3-fluoro-4-((6-methoxy-7-(3-(piperidin-1-yl)propoxy)cinnolin-4-yl)oxy)phenyl)-1-(3-fluorophenyl)-4-oxo-1,4-dihydrocinnoline-3-carboxamide] | – | – | – | – | – | IC50 ([1]; MTT, 72 hours, MKN-45): 3.3 µg/mL (≈ 4.76 µM); IC50 ([2]; NCI-H460, MTT, 72 hours, H460): 1.8 µg/mL (≈ 2.6 µM); IC50 ([3]; MTT, 72 hours, SMMC-7721): 1.9 µg/mL (≈ 2.74 µM); IC50 ([4]; MTT, 72 hours, HT-29): 3.2 µg/mL (≈ 4.62 µM); IC50 ([5]; MTT, 72 hours, U87MG): 2.7 µg/mL (≈ 3.9 µM)
19 | N-(3-fluoro-4-((6-methoxy-7-(3-(4-methylpiperidin-1-yl)propoxy)quinolin-4-yl)oxy)phenyl)-1-(2-fluorophenyl)-4-oxo-1,4-dihydrocinnoline-3-carboxamide [Example 14] | – | – | – | – | – | MKN-45 IC50 ([1]; MTT, 72 hours, MKN-45): 0.45 µg/mL; H460 IC50 ([2]; MTT, 72 hours, H460): 0.47 µg/mL; SMMC-7721 IC50 ([3]; MTT, 72 hours, SMMC-7721): 1.1 µg/mL; HT-29 IC50 ([4]; MTT, 72 hours, HT-29): 0.31 µg/mL; U87MG IC50 ([5]; MTT, 72 hours, U87MG): 0.15 µg/mL
